In publication PMC8097335, “A High‐Affinity Calmodulin‐Binding Site in the CyaA Toxin Translocation Domain is Essential for Invasion of Eukaryotic Cells” (Advanced Science, 2021):

Experiments:
[1] = Peptide translocation across droplet interface bilayers (DIB); type: in vitro ADME; details: TAMRA (dye)-labeled peptide in cis, 15 min; for Peptide in trans droplet, 5 µM holo-CaM in trans: POPC:POPG 9:1 bilayer, CaCl2 2 mM cis vs 0.2 mM trans, epifluorescence, four to seven independent trials
Method: weak fluorescence signal. […]
fluorescence signal. The samples were prepared at the following final concentrations: 10 µM […]
concentration of CDZ wa s 14.5 mM in 100% DMSO. Addition of CDZ at a final concentration of 40 µ M gives a final concentration of less than 0.3 % of DMSO in the […]
Peptide translocation followed by droplet interface bilayerexperiments
An aqueous phase is prepared with buffer D or E and the oil phase is prepared with 15 % (v/v) of chloroform and 0.08%(w/v) of lipids (POP C: POP G at a 9:1molar ratio) in squalene.
A population of droplets is obtained by adding 2 µL of the aqueous phase to 20 µL of the oil phase before briefly shaking the mixture to create an invert emulsion. Two droplet populations were prepared: one containing the TAMRA-labeled peptide in buffer D , the “source”, cis-droplets and the other one containing buffer D or E, or in the presence or in the absence of calmodulin, the “capture”, trans -droplets. […] The fluorescence signals of the “source” and the “capture” droplets were monitored by epifluorescence microscopy for 15 minutes with an Olympus microscope and a MicroMax camera (Princeton Instrument). […]
Quantification of the translocation process is possible thanks to the analysis of the fluorescence images of the droplet pairs. Even if fluorescence is not directly proportional to peptide concentration due to photo-bleaching and small volume variations, one can hypothesize that the fluorescence intensities of the “source” and the “capture” droplets are proportional to the ratio of their concentrations. Moreover, as the initial concentration in the “source” droplet is known and as the total amount of peptide is conserved during the experience, we can write that: CCss (tt = 0) × VVss = CCss (tt ) × VVss + CCcc (tt ) × VVcc , where Ci is the concentration of the droplet i, Vi its volume, which was determined from microscopy images (i=”s” for the source droplet and “c” for the capture droplet). […]
CCcc = CCss (tt = 0) × VVss where F i is the fluorescence intensity measured fordroplet i. […]
analyzed in buffer C. […]

[2] = Peptide titrations by SUVs followed by tryptophan fluorescence (solution-to-membrane partition); type: physicochemical; details: POPC:POPG 8:2 SUVs, buffer A pH 7.4, 25 °C, tryptophan fluorescence ratio 330/370 nm; S.D. within ± 10%
Method: Lipid vesicles preparation
Small unilamellar vesicles (SUVs) and large unilamellar vesicles (LUVs) were prepared with POPC and POPG at a molar ratio of 8:2, at a lipid concentration of 10 mM in buffer A, as previously described 1. Briefly, SUVs and LUVs were prepared by reverse phase evaporation and filtered through polycarbonate filters of 1 μm and 0.2 μm of pore size diameter to obtain L UV. SUVs were further sonicated. The hydrodynamic diameters and mean net charge of the vesicles were measured by dynamic light scattering (DLS) and electrophoretic mobility, respectively, using a ZetaSizer NanoZS (Malvern Pananalytical , Orsay, France) 11.
Peptide titrations bySUV s and CaM followed by tryptophan fluorescence
Titrations were carried out with a FP-8200 Jasco spectrofluorimeter, equipped with a Pelt ie r - thermostated ETC-272T at 25°C. A bandwidth of 5 nm was used for both excitation and […]
(Hellma, France) with constant stirring. Fluorescence emission was recorded between 300 and […]
400 nm at a scan rate of 100 nm/min, with an excitation wavelength of 280 nm. Fluorescence emission spectra were corrected for SUV or CaM baselines . Fluorescence intensity ratio at 330 nm over 370 nm was use d to measure the partition coefficient (K X) of peptides between the solution andmembrane s 1, 12 and the affinity (K d) of peptides for CaM 13.
Determination of partition coefficient KX and dissociation constant Kd from […]
The partition coefficient KX is defined as the ratio of protein in the lipid (PL) and in buffer […]
(PW) pha se s 12, 14, expressed by: KKXX = [LL ]? , giving[PPWW ] [PPWW ]= [WW], where [W] the […]
concentration of water (55.5 M) and [L] the lipid concentration.
The fraction of peptide partitioned into the membrane, fPL, is equal to:
ffPPLL = [PPLL ][PPTT ]= [PPLL ][PPLL ]+[PPWW ]= 11+([PPWW ])= 11+( [WW]), where PT is the total concentration of peptides [PP TT ]= [PP LL ]+ [PP WW ]. […]
The equations a re fitted to the experimental data using the KaleidaGraph software, providing the KX and K d value s. The partition coefficient is related to the apparent dissociation constant:
KKXX × KKdd = [WW ] and to the free energy of partition ΔG Kx = -RTln(K X), where ΔG is the free energy in kcal/mol, R the gas constant (R = 1.98 x 10-3 kcal/mol/K) and T the temperature i n Kelvin. The free energy of peptide CaM interaction, ∆G Kd, is given by ΔG Kd = RTln(K d).
Sedimentation velocity-Analytical ultracentrifugation (SV -AUC) […]
ratio 1:1 (at 70 µM each). Samples were incubated 2h at 20°C in the ultracentrifuge and, then span at 42,000 rpm in an An-50 Ti rotor. […]

| Compound | Peptide in trans droplet, 5 µM holo-CaM in trans [1] | Partition coefficient KX [2] | Peptide in trans droplet, 100 µM CaM in trans ([1]; calcium gradient 2 mM cis vs 0.2 mM trans, five to seven independent trials) |
| --- | --- | --- | --- |
| CC[C@H](C)[C@H](NC(=O)[C@H](CCCCN)NC(=O)[C@H](Cc1c[nH]c2ccccc12)NC(=O)[C@H](CC(C)C)NC(=O)[C@H](CC(C)C)NC(=O)[C@H](CC(=O)O)NC(=O)[C@@H](NC(=O)[C@H](CCCNC(=N)N)NC(=O)[C@H](CCC(=O)O)NC(=O)[C@H](CCCNC(=N)N)NC(=O)[C@H](CC(=O)O)NC(=O)[C@H](CC(C)C)NC(C)=O)[C@@H](C)CC)C(=O)N[C@@H](C)C(=O)N[C@@H](CCCNC(=N)N)C(=O)N[C@@H](C)C(=O)NCC(=O)N[C@@H](C)C(=O)N[C@@H](CCCNC(=N)N)C(=O)N[C@@H](CO)C(=O)N[C@@H](C)C(=O)N[C@H](C(=O)NCC(N)=O)C(C)C [H-helix, reference compound] | do not accumulate |  |  |
| Ac-ASAHWGQEALQGAQAVAAAQELVHAIALMTQ-NH2 [P454 R12E] | do not accumulate | 80 ×10^3 | significant accumulation |
